Reference: the NIST ThermoML archive (doi:10.1016/j.fluid.2014.01.013)
± gives the expanded uncertainty stated by the source.

conditions: 298.15 K; 101.33 kPa; Liquid; Vibrating tube method

| SMILES | mass density |
| --- | --- |
| O=Cc1ccccc1 [benzaldehyde] | 1042.94 ± 0.26 kg/m3 |
| CCCCCCCCCCCCCCCC [hexadecane] | 770.21 ± 0.24 kg/m3 |

The remaining lines, values ahead:

| mass density | SMILES |
| --- | --- |
| 741.54 ± 0.58 kg/m3 | CCCCCCCCCCCC [dodecane] |
| 726.43 ± 0.25 kg/m3 | CCCCCCCCCC [decane] |
| 759.27 ± 0.24 kg/m3 | CCCCCCCCCCCCCC [tetradecane] |
